According to patent publication US20260217701A1, “SELECTIVE BET INHIBITORS AND USES THEREOF” (Tay Therapeutics Limited, priority 2022, published 2026):
Where “and” joins values, the source holds several entries; their conditions need not be identical. Equal values may be shown once. Marks after values point to notes of the source that are not given here.

Assays:
anti-collagen IgG1 = experiment: CIA model: rat anti-collagen IgG1 levels; assay type: in vivo, Lewis rats; set-up: Average rat anti-collagen IgG1 levels, Mean: unit not given here
[1] = CIA study: animal body weight; conditions: for Average animal body weight / Average animal body weight percent change: CIA; for Animal body weight percent change (%): individual animals

Cn1cc(-c2ccccc2)c(-c2cn(C)c(=O)c3[nH]c(-c4cnn(C(F)(F)F)c4)cc23)cc1=O [Compound A, 6-methyl-4-(1-methyl-2-oxo-5-phenyl-1,2-dihydropyridin-4-yl)-2-(1-(trifluoromethyl)-1H-pyrazol-4-yl)-1,6-dihydro-7H-pyrrolo[2,3-c]pyridin-7-one]
Average rat anti-collagen IgG1 levels, Mean (anti-collagen IgG1; Group 5 (CIA + Compound A 1 mg/kg)): 1180.61** | Average rat anti-collagen IgG1 levels, Mean (anti-collagen IgG1; Group 6 (CIA + Compound A 3 mg/kg)): 569.60** | Average rat anti-collagen IgG1 levels, Mean (anti-collagen IgG1; Group 7 (CIA + Compound A 10 mg/kg)): 220.15** | Inhibition of IgG1 (anti-collagen IgG1; all three doses): near complete inhibition of IgG1 | Animal body weight ([1]; CIA + Compound A 1 mg/kg, Day 8, 1 mg/kg): 172 g and 157 g and 170 g and 161 g and 171 g and 165 g | Animal body weight ([1]; CIA + Compound A 1 mg/kg, Day 9, 1 mg/kg): 180 g and 156 g and 175 g and 162 g and 173 g and 170 g and 169 g | Animal body weight ([1]; CIA + Compound A 1 mg/kg, Day 10, 1 mg/kg): 178 g and 155 g and 166 g and 170 g and 176 g | Animal body weight ([1]; CIA + Compound A 1 mg/kg, Day 11, 1 mg/kg): 180 g and 157 g and 178 g and 162 g and 170 g and 175 g and 167 g | Animal body weight ([1]; CIA + Compound A 1 mg/kg, Day 12, 1 mg/kg): 182 g and 158 g and 176 g and 162 g and 174 g and 177 g and 165 g | Animal body weight ([1]; CIA + Compound A 1 mg/kg, Day 13, 1 mg/kg): 180 g and 158 g and 179 g and 160 g and 174 g and 172 g and 165 g | Animal body weight ([1]; CIA + Compound A 1 mg/kg, Day 14, 1 mg/kg): 178 g and 159 g and 179 g and 155 g and 175 g and 170 g and 168 g | Animal body weight ([1]; CIA + Compound A 3 mg/kg, Day 8, 3 mg/kg): 160 g and 174 g and 173 g and 169 g and 163 g and 165 g and 167 g and 157 g | Animal body weight ([1]; CIA + Compound A 3 mg/kg, Day 9, 3 mg/kg): 162 g and 171 g and 178 g and 169 g and 160 g and 163 g and 170 g | Animal body weight ([1]; CIA + Compound A 3 mg/kg, Day 10, 3 mg/kg): 162 g and 172 g and 177 g and 170 g and 168 g and 167 g | Animal body weight ([1]; CIA + Compound A 3 mg/kg, Day 11, 3 mg/kg): 160 g and 172 g and 178 g and 169 g and 165 g | Animal body weight ([1]; CIA + Compound A 3 mg/kg, Day 12, 3 mg/kg): 158 g and 176 g and 170 g and 167 g and 169 g and 172 g and 165 g | Animal body weight ([1]; CIA + Compound A 3 mg/kg, Day 13, 3 mg/kg): 162 g and 175 g and 166 g and 173 g and 157 g and 168 g and 171 g | Animal body weight ([1]; CIA + Compound A 3 mg/kg, Day 14, 3 mg/kg): 163 g and 177 g and 170 g and 175 g and 156 g and 167 g and 158 g | Animal body weight ([1]; CIA + Compound A 10 mg/kg, Day 8, 10 mg/kg): 162 g | Animal body weight ([1]; CIA + Compound A 10 mg/kg, Day 9, 10 mg/kg): 164 g | Animal body weight ([1]; CIA + Compound A 10 mg/kg, Day 10, 10 mg/kg): 165 g | Animal body weight ([1]; CIA + Compound A 10 mg/kg, Day 11, 10 mg/kg): 164 g | Animal body weight ([1]; CIA + Compound A 10 mg/kg, Day 12, 10 mg/kg): 163 g | Animal body weight ([1]; CIA + Compound A 10 mg/kg, Day 13, 10 mg/kg): 163 g | Animal body weight ([1]; CIA + Compound A 10 mg/kg, Day 14, 10 mg/kg): 164 g | Average animal body weight ([1]; Day 0, 1 mg/kg): 163 | Average animal body weight percent change ([1]; Day 0, 1 mg/kg): 0.00% | Average animal body weight ([1]; Day 0, 3 mg/kg): 166 | Average animal body weight percent change ([1]; Day 0, 3 mg/kg): 0.00% | Average animal body weight ([1]; Day 0, 10 mg/kg): 162 | Average animal body weight percent change ([1]; Day 0, 10 mg/kg): 0.00% | Average animal body weight ([1]; Day 1, 1 mg/kg): 166 | Average animal body weight percent change ([1]; Day 1, 1 mg/kg): 1.55% | Average animal body weight ([1]; Day 1, 3 mg/kg): 165 | Average animal body weight percent change ([1]; Day 1, 3 mg/kg): −0.19% | Average animal body weight ([1]; Day 1, 10 mg/kg): 164 | Average animal body weight percent change ([1]; Day 1, 10 mg/kg): 1.12% | Average animal body weight ([1]; Day 2, 1 mg/kg): 163 | Average animal body weight percent change ([1]; Day 2, 1 mg/kg): −0.07% | Average animal body weight ([1]; Day 2, 3 mg/kg): 165 | Average animal body weight percent change ([1]; Day 2, 3 mg/kg): −0.57% | Average animal body weight ([1]; Day 2, 10 mg/kg): 163 | Average animal body weight percent change ([1]; Day 2, 10 mg/kg): 0.71% | Average animal body weight ([1]; Day 3, 1 mg/kg): 165 | Average animal body weight percent change ([1]; Day 3, 1 mg/kg): 0.96% | Average animal body weight ([1]; Day 3, 3 mg/kg): 163 | Average animal body weight percent change ([1]; Day 3, 3 mg/kg): −1.45% | Average animal body weight ([1]; Day 3, 10 mg/kg): 163 | Average animal body weight percent change ([1]; Day 3, 10 mg/kg): 0.63% | Average animal body weight ([1]; Day 4, 1 mg/kg): 165 | Average animal body weight percent change ([1]; Day 4, 1 mg/kg): 1.26% | Average animal body weight ([1]; Day 4, 3 mg/kg): 165 | Average animal body weight percent change ([1]; Day 4, 3 mg/kg): −0.35% | Average animal body weight ([1]; Day 4, 10 mg/kg): 163 | Average animal body weight percent change ([1]; Day 4, 10 mg/kg): 0.72% | Average animal body weight ([1]; Day 5, 1 mg/kg): 169 | Average animal body weight percent change ([1]; Day 5, 1 mg/kg): 3.76% | Average animal body weight ([1]; Day 5, 3 mg/kg): 167 | Average animal body weight percent change ([1]; Day 5, 3 mg/kg): 0.70% | Average animal body weight ([1]; Day 5, 10 mg/kg): 166 | Average animal body weight percent change ([1]; Day 5, 10 mg/kg): 2.60% | Average animal body weight ([1]; Day 6, 1 mg/kg): 170 | Average animal body weight percent change ([1]; Day 6, 1 mg/kg): 4.33% | Average animal body weight ([1]; Day 6, 3 mg/kg): 166 | Average animal body weight percent change ([1]; Day 6, 3 mg/kg): 0.43% | Average animal body weight ([1]; Day 6, 10 mg/kg): 166 | Average animal body weight percent change ([1]; Day 6, 10 mg/kg): 2.04% | Average animal body weight ([1]; Day 7, 1 mg/kg): 170 | Average animal body weight percent change ([1]; Day 7, 1 mg/kg): 3.94% | Average animal body weight ([1]; Day 7, 3 mg/kg): 164 | Average animal body weight percent change ([1]; Day 7, 3 mg/kg): −0.93% | Average animal body weight ([1]; Day 7, 10 mg/kg): 164 | Average animal body weight percent change ([1]; Day 7, 10 mg/kg): 0.89% | Average animal body weight ([1]; Day 8, 1 mg/kg): 167 | Average animal body weight percent change ([1]; Day 8, 1 mg/kg): 2.26% | Average animal body weight ([1]; Day 8, 3 mg/kg): 166 | Average animal body weight percent change ([1]; Day 8, 3 mg/kg): 0.36% | Average animal body weight ([1]; Day 8, 10 mg/kg): 162 | Average animal body weight percent change ([1]; Day 8, 10 mg/kg): −0.31% | Animal body weight percent change (%) ([1]; Day 8, Group 5 (CIA + Compound A 1 mg/kg), 1 mg/kg): 4.24% and −4.27% and 4.94% and 5.92% and 1.78% and 2.40% and 1.23% | Animal body weight percent change (%) ([1]; Day 8, Group 6 (CIA + Compound A 3 mg/kg), 3 mg/kg): −4.76% and 1.75% and −1.14% and 1.20% and −2.40% and 1.23% and 6.37% and 0.64% | Average animal body weight ([1]; Day 9, 1 mg/kg): 169 | Average animal body weight percent change ([1]; Day 9, 1 mg/kg): 3.79% | Average animal body weight ([1]; Day 9, 3 mg/kg): 167 | Average animal body weight percent change ([1]; Day 9, 3 mg/kg): 0.75%
